Assay [1] has as its system GABAA receptor β3 subunit S408/9. The assay can be described thus: Immunoblot of β3 S408/9 phosphorylation in hippocampal slices. Format: cell-based, mouse. Particulars: 20 min exposure (100 nM in FIG. 6). As for the experimental part:
Asterisks represent a significant difference from control (ALLO: p<0.01, Student's t-test, n=10 slices, from 10 mice; SGE-516: p<0.05, Student's t-test, n=4 slices, from 4 mice). […] Asterisks represent a significant difference from control (ALLO: p<0.05, Student's t-test, n=8 slices; SGE-516: p<0.05, Student's t-test, n=4 slices).
Hippocampi were dissected out of acute slices from 8 to 12 week old C57/Bl6 mice and lysed with […] including: 20 mM Tris-HCl, 150 mM NaCl, 5 mM EDTA, 10 mM NaF, 2 mM Na3VO4, 10 mM pyrophosphate, 0.1% SDS and 1% Triton after drug treatment. The β3 subunit was isolated using immunoprecipitation with β3 antibodies, after correction for protein content and the specific activity of labeling. Results were attained by SDS/PAGE followed by autoradiography (Abramian et al., 2010). For biotinylation experiments hippocampi were dissected out of acute slices from 8 to 12 week old C57/Bl6 mice and incubated in artificial cerebrospinal fluid (ACSF) described above at 30° C. for 1 h for recovery before experimentation. Slices were then placed on ice and incubated for 30 min with 1 mg/mL NHS-SS-biotin (Pierce). Excess biotin was removed by a 50 mM glycine quenching buffer, followed by washing of slices three times in ice-cold ACSF. The tissue was snap frozen on dry ice for 5 min, thawed at 4° C. and lysed. The lysates were solubilized with 2% Triton at 4° C. on a rotating wheel for 1 h. The insoluble material was removed by centrifugation, and 350-500 μg of protein lysate were incubated with NeutrAvidin beads (Pierce) for 18-24 h at 4° C. Bound material was eluted with sample buffer and subjected to SDS/PAGE and then immunoblotted with the indicated antibodies. Blots were then quantified using the CCD-based ChemiDoc XRS ? system. Antibodies against the β3 subunit and the phospho-β3 antibody were generated and verified by the laboratory of S.J.M. (Vien et al., 2015).
Treatment of hippocampal slices with SGE-516 increased the phosphorylation of S408/9 measured using pS408/9 antibodies. To produce antibodies specific for phosphorylated S443, rabbits were injected with a synthetic peptide corresponding to residues […] of the murine α4 subunit in which the serine residue corresponding to S443 was chemically phosphorylated; […]. Hippocampal slices were treated with vehicle (Con), or SGE-516 for 20 min. Slices were immunoblotted with pS408/9, β3, or actin antibodies. The ratio of pS408/9/β3 immunoreactivity was then normalized to control slices (100%=the line).
Hippocampal slices were treated with 100 nM ALLO or P4 (progesterone), and S408/9 phosphorylation was then determined as detailed above, n=4 slices (FIG. 18D). Hippocampal slices were treated with 100 nM ORG (FIG. 18E). S408/9 phosphorylation was examined using immunoblotting. […]
In general terms: A western blot detects proteins with antibodies after separation by electrophoresis.

The subject of assay [2] is dentate gyrus granule cells (DGGCs). The assay can be described thus: Acute NAS exposure: tonic current in DGGCs of hippocampal slices. It is filed as cell-based, mouse. Particulars: 100 nM, 10 min acute exposure; mean±SEM. As for the experimental part:
Brain slices were prepared from 3- to 5-week-old male C57 mice. Mice were anesthetized with isoflurane, decapitated, and brains were rapidly removed and submerged in ice-cold cutting solution containing (mM): 126 NaCl, 2.5 KCl, 0.5 CaCl2, 2 MgCl2, 26 NaHCO3, 1.25 NaH2PO4, 10 glucose, 1.5 sodium pyruvate, and 3 kynurenic acid. Coronal 310 μm thick slices were cut with the vibratome VT1000S (Leica Microsystems, St Louis, Mo., USA). The slices were then transferred into incubation chamber filled with prewarmed (31-32° C.) oxygenated artificial cerebro-spinal fluid (ACSF) of the following composition (in mM): 126 NaCl, 2.5 KCl, 2 CaCl2, 2 MgCl2, 26 NaHCO3, 1.25 NaH2PO4, 10 glucose, 1.5 sodium pyruvate, 1 glutamine, 3 kynurenic acid and 0.005 GABA bubbled with 95% O2-5% CO2. Slices were allowed to recover at 32° C. for at least 1 hr before recording. Exogenous GABA was added in an attempt to standardize ambient GABA in the slice and provide an agonist source for newly inserted extrasynaptic GABAARs. […]
Whole-cell currents were recorded from the dentate gyrus granule cells (DGGCs) in 310-μm-thick coronal hippocampal slices. […] A 5 min period for stabilization after obtaining the whole-cell recording conformation (holding potential of −60 mV) was allowed before currents were recorded using an Axopatch 200B amplifier (Molecular Devices), low-pass filtered at 2 kHz, digitized at 20 kHz (Digidata 1440A; Molecular Devices), and stored for offline analysis.
For tonic current measurements, an all-points histogram was plotted for a 10 s period before and during 100 μM picrotoxin application, once the response reached a plateau level. […] Series resistance and whole-cell capacitance were continually monitored and compensated throughout the course of the experiment. […] Spontaneous inhibitory post-synaptic currents (sIPSCs) were analyzed using the mini-analysis software (version 5.6.4; Synaptosoft, Decatur, Ga.). […] Only recordings with a minimum of 200 events fitting these criteria were analyzed. sIPSCs amplitude, and frequency from each experimental condition was pooled and expressed as mean±SEM. […]

Take `CC(=O)[C@H]1CC[C@H]2[C@@H]3CC[C@H]4C[C@H](O)CC[C@]4(C)[C@H]3CC[C@]12C` [ALLO, Allopregnanolone]: the “β3 S408/409 phosphorylation in hippocampal slices” value in assay [1] was “increases”. Further, the “tonic current during acute exposure” value in assay [2] came to 58.3±13.0 pA.

With `CC(=O)[C@H]1CC[C@H]2[C@@H]3CC[C@H]4C[C@](C)(O)CC[C@]4(C)[C@H]3CC[C@]12C` [Ganaxolone], in assay [2], the “tonic current during acute exposure” value is recorded as 78.8±23.2 pA.

As for `C[C@@]1(O)CC[C@@]2(C)[C@H](CC[C@@H]3[C@@H]2CC[C@]2(C)[C@@H](C(=O)Cn4nccn4)CC[C@@H]32)C1` [SGE-516], in assay [1], the “β3 S408/409 phosphorylation in hippocampal slices” value is “increases”. Moreover, in assay [2], the “tonic current during acute exposure” value is listed as 49.2±8.9 pA.
